The supplement of paper PMC5908809

Legend:
[1] = system: normal NK cells expanded with K562-aAPC; assay: percent inhibition of viability; higher = more inhibition; settings: 72 h, IL-2 2.5 ng/mL
Procedure: (§1)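 Drug sensitivity and resistance testing on K562-aAPC-expanded normal NK cells: 5 concentrations (10-fold steps over a 10,000-fold range), 72 h at 37 °C, viability by CellTiter-Glo normalised to DMSO and benzethonium chloride controls; DSS from the fitted curve.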

DERL-7 (IL-2 2.5 ng/mL) [2] = assay: as above; settings: 72 h
IMC-1 (IL-2 20 ng/mL) [3] = assay: as above; settings: 72 h
KAI3 (IL-2 2.5 ng/mL) [4] = assay: as above; settings: 72 h
KHYG-1 (IL-2 2.5 ng/mL) [5] = assay: as above; settings: 72 h
NK-92 (IL-2 2.5 ng/mL) [6] = assay: as above; settings: 72 h
NK-YS (IL-2 2.5 ng/mL) [7] = assay: as above; settings: 72 h
NKL (IL-2 2.5 ng/mL) [8] = assay: as above; settings: 72 h
SNK-6 (IL-2 2.5 ng/mL) [9] = assay: as above; settings: 72 h
YT (IL-2 2.5 ng/mL) [10] = assay: as above; settings: 72 h
[11] = system: normal primary NK cells, pool 1 (3 donors) (IL-2 2.5 ng/mL); assay: as above; settings: 72 h
[12] = system: normal primary NK cells, pool 1 (3 donors), resting (IL-2 0 ng/mL); assay: as above; settings: 72 h
[13] = system: normal primary NK cells, pool 2 (3 donors) (IL-2 2.5 ng/mL); assay: as above; settings: 72 h
[14] = system: normal primary NK cells, pool 3 (3 donors) (IL-2 2.5 ng/mL); assay: as above; settings: 72 h
[15] = system: normal NK cells expanded with K562-aAPC; assay: drug sensitivity score (DSS) (DSS units); higher = more sensitive; extreme values may be limits of the assay; settings: 72 h; IL-2 2.5 ng/mL
Procedure: as §1

DERL-7 (IL-2 2.5 ng/mL) [16] = assay: as above; settings: 72 h
IMC-1 (IL-2 20 ng/mL) [17] = assay: as above; settings: 72 h
KAI3 (IL-2 2.5 ng/mL) [18] = assay: as above; settings: 72 h
KHYG-1 (IL-2 2.5 ng/mL) [19] = assay: as above; settings: 72 h
NK-92 (IL-2 2.5 ng/mL) [20] = assay: as above; settings: 72 h
NK-YS (IL-2 2.5 ng/mL) [21] = assay: as above; settings: 72 h
NKL (IL-2 2.5 ng/mL) [22] = assay: as above; settings: 72 h
SNK-6 (IL-2 2.5 ng/mL) [23] = assay: as above; settings: 72 h
YT (IL-2 2.5 ng/mL) [24] = assay: as above; settings: 72 h
[25] = system: normal primary NK cells, pool 1 (3 donors) (IL-2 2.5 ng/mL); assay: as above; settings: 72 h
[26] = system: normal primary NK cells, pool 1 (3 donors), resting (IL-2 0 ng/mL); assay: as above; settings: 72 h
[27] = system: normal primary NK cells, pool 2 (3 donors) (IL-2 2.5 ng/mL); assay: as above; settings: 72 h
[28] = system: normal primary NK cells, pool 3 (3 donors) (IL-2 2.5 ng/mL); assay: as above; settings: 72 h

COC(=O)C[C@](O)(CCCC(C)(C)O)C(=O)O[C@@H]1C(OC)=C[C@]23CCCN2CCc2cc4c(cc2[C@H]13)OCO4 [Omacetaxine] (max concentration tested 10000 nM)
percent inhibition of viability [%]
Settings | 1 nM | 10 nM | 100 nM | 1000 nM | 10000 nM
DERL-7 (IL-2 2.5 ng/mL) [2] | 5.07 | 60.5 | 100 | 101 | 101
IMC-1 (IL-2 20 ng/mL) [3] | -8.96 | -3.07 | 99.7 | 101 | 101
KAI3 (IL-2 2.5 ng/mL) [4] | 29.6 | 46.7 | 101 | 105 | 106
KHYG-1 (IL-2 2.5 ng/mL) [5] | -7.86 | -9.89 | 102 | 106 | 107
NK-92 (IL-2 2.5 ng/mL) [6] | 1.68 | 7.27 | 100 | 106 | 108
NK-YS (IL-2 2.5 ng/mL) [7] | 1.36 | 1.43 | 100 | 105 | 108
NKL (IL-2 2.5 ng/mL) [8] | 3.97 | 2.74 | 99.8 | 107 | 108
SNK-6 (IL-2 2.5 ng/mL) [9] | 0.3 | 72.3 | 95.2 | 95.4 | 99.9
YT (IL-2 2.5 ng/mL) [10] | -7.92 | 19.8 | 98.2 | 107 | 108
[1] | 3.7 | 16 | 93.1 | 101 | 101
[11] | 1.78 | 69 | 96.7 | 96.5 | 99
[12] | 39.6 | 89.8 | 90.3 | 89.8 | 91.4
[13] | 4.96 | 73.8 | 93.2 | 93.8 | 95.3
[14] | 9.72 | 46.5 | 96.3 | 97.1 | 99.5

Settings | drug sensitivity score
DERL-7 (IL-2 2.5 ng/mL) [16] | 37.8
IMC-1 (IL-2 20 ng/mL) [17] | 30.1
KAI3 (IL-2 2.5 ng/mL) [18] | 37.1
KHYG-1 (IL-2 2.5 ng/mL) [19] | 29.9
NK-92 (IL-2 2.5 ng/mL) [20] | 31.6
NK-YS (IL-2 2.5 ng/mL) [21] | 30.6
NKL (IL-2 2.5 ng/mL) [22] | 30.8
SNK-6 (IL-2 2.5 ng/mL) [23] | 38.8
YT (IL-2 2.5 ng/mL) [24] | 33.7
[15] | 31.6
[25] | 38.4
[26] | 43.6
[27] | 38.4
[28] | 35.4

COc1cccc2c1c(O)c(C(=O)N(C)c1ccc(C(F)(F)F)cc1)c(=O)n2C [Tasquinimod] (max concentration tested 10000 nM)
percent inhibition of viability [%]
Settings | 1 nM | 10 nM | 100 nM | 1000 nM | 10000 nM
DERL-7 (IL-2 2.5 ng/mL) [2] | -3.57 | -2.07 | -7.69 | -10.8 | -11.1
IMC-1 (IL-2 20 ng/mL) [3] | -0.7 | -0.26 | 6.03 | 4.89 | 24.9
KAI3 (IL-2 2.5 ng/mL) [4] | -4.26 | 7.35 | 5.88 | 0.64 | 16.9
KHYG-1 (IL-2 2.5 ng/mL) [5] | -2.03 | 0.19 | 16.6 | 3.8 | 15.4
NK-92 (IL-2 2.5 ng/mL) [6] | -9.77 | 4.66 | 9.08 | 0.57 | 14.6
NK-YS (IL-2 2.5 ng/mL) [7] | 0.96 | 4.34 | 12.7 | 5.52 | 18.5
NKL (IL-2 2.5 ng/mL) [8] | -7.64 | -0.44 | 4.18 | -3.6 | 2.35
SNK-6 (IL-2 2.5 ng/mL) [9] | -5.13 | 6.31 | 6.1 | 14.1 | 15.8
YT (IL-2 2.5 ng/mL) [10] | -0.31 | 1.63 | 5.58 | -0.55 | 12.3
[1] | -7.07 | 0.32 | 1.21 | 7.82 | 14.8
[11] | 3.81 | -6.54 | 6.5 | -11.9 | 5.24
[12] | 8.18 | -8.58 | -1.08 | -15.9 | -8.64
[13] | -8.15 | -6.65 | -1.09 | -7.24 | -2.69
[14] | -20.6 | -6.75 | -1.92 | -3.86 | -2.57

Settings | drug sensitivity score
DERL-7 (IL-2 2.5 ng/mL) [16] | 0
IMC-1 (IL-2 20 ng/mL) [17] | 1.63
KAI3 (IL-2 2.5 ng/mL) [18] | 0.42
KHYG-1 (IL-2 2.5 ng/mL) [19] | 0.64
NK-92 (IL-2 2.5 ng/mL) [20] | 0.25
NK-YS (IL-2 2.5 ng/mL) [21] | 0.88
NKL (IL-2 2.5 ng/mL) [22] | 0
SNK-6 (IL-2 2.5 ng/mL) [23] | 1.33
YT (IL-2 2.5 ng/mL) [24] | 0.05
[15] | 0.52
[25] | 0
[26] | 0
[27] | 0
[28] | 0

CN(C)C/C=C/C(=O)Nc1cc2c(Nc3ccc(F)c(Cl)c3)ncnc2cc1O[C@H]1CCOC1 [Afatinib] (max concentration tested 1000 nM)
percent inhibition of viability [%]
Settings | 0.1 nM | 1 nM | 10 nM | 100 nM | 1000 nM
DERL-7 (IL-2 2.5 ng/mL) [2] | 1.24 | -0.84 | 3.12 | 3.53 | 40.4
IMC-1 (IL-2 20 ng/mL) [3] | -4.64 | 0.23 | 3.73 | 0.77 | -7.53
KAI3 (IL-2 2.5 ng/mL) [4] | -6.04 | -6.37 | -2.67 | -0.11 | 17.7
KHYG-1 (IL-2 2.5 ng/mL) [5] | 1.25 | 0.47 | 0.09 | 5.88 | 8.01
NK-92 (IL-2 2.5 ng/mL) [6] | -4.74 | -8.88 | -4.7 | 6.1 | 20
NK-YS (IL-2 2.5 ng/mL) [7] | -6.74 | -1.03 | -0.59 | 1.9 | 17.9
NKL (IL-2 2.5 ng/mL) [8] | 4.2 | 5.29 | 8.09 | 15.9 | 30.1
SNK-6 (IL-2 2.5 ng/mL) [9] | 5.26 | 23.4 | 23.4 | 27.9 | -1.27
YT (IL-2 2.5 ng/mL) [10] | 0.42 | 0.78 | 2.66 | 5.09 | 29.2
[1] | -3.84 | -0.9 | 0.35 | 8.86 | 23.9
[11] | 0.9 | -20.4 | -8.14 | -16.9 | 17.6
[12] | 1.52 | -21.3 | -1.76 | -18.2 | 31.8
[13] | -9.45 | -8.4 | 7.17 | -5.73 | 18.4
[14] | -7.17 | -9.3 | 9.58 | -8.16 | 3.09

Settings | drug sensitivity score
DERL-7 (IL-2 2.5 ng/mL) [16] | 2.57
IMC-1 (IL-2 20 ng/mL) [17] | 0
KAI3 (IL-2 2.5 ng/mL) [18] | 0.41
KHYG-1 (IL-2 2.5 ng/mL) [19] | 0
NK-92 (IL-2 2.5 ng/mL) [20] | 1.32
NK-YS (IL-2 2.5 ng/mL) [21] | 0.66
NKL (IL-2 2.5 ng/mL) [22] | 3.07
SNK-6 (IL-2 2.5 ng/mL) [23] | 0
YT (IL-2 2.5 ng/mL) [24] | 2.06
[15] | 1.97
[25] | 0.16
[26] | 0.88
[27] | 0.29
[28] | 0
